pIC50: −log10 of the molar value. In brackets after ≈: the same amount, converted by molar mass. Read-outs that look alike come from different tables or passages of the source.
Key:
[1] = tested on: influenza virus (A/Puerto Rico/8/34 (H1N1), PR/8); experiment: Antiviral activity against H1N1, CPE inhibition assay; type: cell-based; conditions: read-out: IC50 anti-H1N1 activity
[2] = Cytotoxicity against confluent MDCK cells by MTT method; type: cell-based; conditions: dog, read-out: CC50 (50% cytotoxicity concentration)
Protocol: (§1) Cytotoxicity against HL-60 and BEL-7402 cancer cell lines and confluent MDCK cells was assayed by the MTT method [28]. Cell lines were grown in RPMI-1640 supplemented with 10% FBS under a humidified atmosphere of 5% CO2 and 95% air at 37 °C. […] Then, 2 μL of the test solutions (in MeOH) were added to each well and further incubated for 72 h. The MTT solution (20 μL, 5 mg/mL in IPMI-1640 medium) was then added to each well and incubated for 4 h. Old medium containing MTT (150 μL) was then gently replaced by DMSO and pipetted to dissolve any formazan crystals formed. Absorbance was then determined on a SPECTRA MAX PLUS plate reader at 540 nm. The CC50 was calculated as the compound concentration necessary to reduce cell viability by 50%.

HL-60 cell line = experiment: in vitro; conditions: human
Protocol: as §1

Enterobacter aerogenes = experiment: Antimicrobial activity, agar dilution method; conditions: for MIC Enterobacter aerogenes: agar dilution, paper disks, 24 h incubation, 37 °C; for MIC: Klebsiella aerogenes, 24 h, read-out: MIC Enterobacter aerogenes
Protocol: (§2) Antimicrobial activity against E. aerogenes, P. aeruginosa, S. aureus and C. albicans was evaluated using an agar dilution method [29]. The tested strains were cultivated in LB agar plates for bacteria and in YPD agar plates for C. albicans, at 37 °C. Compounds and positive controls were dissolved in 5% DMSO-H2O at different concentrations from 1000 to 62.5 μg/mL and then from 50 to 0.78 μg/mL, using continuous 2-fold dilution. The test solutions (5 μL) were absorbed onto paper disks (5 mm diameter) and placed on the assay plates. After 24 h incubation, zones of inhibition (mm in diameter) were recorded. The minimum inhibitory concentrations were defined as the lowest concentration at which an inhibition zone could be observed.

Pseudomonas aeruginosa = experiment: Antimicrobial activity, agar dilution method; conditions: for MIC Pseudomonas aeruginosa: agar dilution, paper disks, 24 h incubation, 37 °C; for MIC: Pseudomonas aeruginosa, 24 h
Protocol: as §2

Staphylococcus aureus = experiment: Antimicrobial activity, agar dilution method; conditions: for MIC Staphylococcus aureus: agar dilution, paper disks, 24 h incubation, 37 °C; for MIC: Staphylococcus aureus, 24 h, read-out: MIC Staphylococcus aureus
Protocol: as §2

Candida albicans = experiment: Antimicrobial activity, agar dilution method; conditions: for MIC: Candida albicans, 24 h, read-out: MIC Candida albicans
Protocol: as §2

BEL-7402 cell line = experiment: in vitro; conditions: human
Protocol: as §1

[3] = read-out: MIC Pseudomonas aeruginosa, agar dilution, paper disks, 24 h incubation, 37 °C

| Compound | MIC Pseudomonas aeruginosa (Pseudomonas aeruginosa) | MIC (Enterobacter aerogenes) | MIC (Staphylococcus aureus) | MIC (Candida albicans) | MIC (Pseudomonas aeruginosa; [3]) | other results |
| --- | --- | --- | --- | --- | --- | --- |
| COC(=O)[C@]1(Cc2ccc(O)c(CC=C(C)C)c2)OC(=O)C(O)=C1c1ccc(O)cc1 [Compound 5, butyrolactone I] | – | – | – | – | – | pIC50 ([1]; MDCK, 48 h): 3.84; CC50 at 72 h [2]: 976 µM; IC50 at 72 h (HL-60 cell line): 57.5 µM |
| CC(O)C(=O)O.O=C(O)c1cn(C2CC2)c2cc(N3CCNCC3)c(F)cc2c1=O [Ciprofloxacinlactate, reference compound] | 30 µM | – | – | – | – | MIC Enterobacter aerogenes (Enterobacter aerogenes): 1 µM; MIC Staphylococcus aureus (Staphylococcus aureus): 1 µM |
| COC(=O)[C@]1(Cc2ccc(O)c(CCC(C)(C)O)c2)OC(=O)C(O)=C1c1ccc(O)cc1 [Compound 3, (R)-methyl 4-hydroxy-2-(4-hydroxy-3-(3-hydroxy-3-methylbutyl)benzyl)-3-(4-hydroxyphenyl)-5-oxo-2,5-dihydrofuran-2-carboxylate] | – | > 100 µM | > 100 µM | > 100 µM | – | MIC (Pseudomonas aeruginosa; read-out: MIC Pseudomonas aeruginosa): > 100 µM |
| COC(=O)c1cccc(O)c1NC(=O)c1ccccc1NC(=O)c1cccnc1 [Compound 1, methyl 3-hydroxy-2-(2-(nicotinamido)benzamido)benzoate] | >100 µM | > 100 µM | 63.9 µM (≈ 25 µg/mL) | > 100 µM | 63.9 µM (≈ 25 µg/mL) | – |
| NC(=O)c1ncn([C@@H]2O[C@H](CO)[C@@H](O)[C@H]2O)n1 [Ribavirin, reference compound] | – | – | – | – | – | pIC50 ([1]; CPE inhibition in MDCK cells, 48 h post-infection): 4.00 |
| COc1cc([C@@H]2c3cc4c(cc3[C@@H](O[C@@H]3O[C@@H]5CO[C@@H](C)O[C@H]5[C@H](O)[C@H]3O)[C@H]3COC(=O)[C@H]23)OCO4)cc(OC)c1O [Vp-16, Etoposide, reference compound] | – | – | – | – | – | IC50 at 72 h (HL-60 cell line): 0.042 µM; IC50 at 72 h (BEL-7402 cell line): 0.83 µM |
| COC(=O)c1cccc(O)c1-n1c(-c2cccnc2)nc2ccccc2c1=O [Compound 2, methyl 3-hydroxy-2-(4-oxo-2-(pyridin-3-yl)quinazolin-3(4H)-yl)benzoate] | – | 33.5 µM (≈ 12.5 µg/mL) | > 100 µM | > 100 µM | > 100 µM | – |
| COC(=O)c1cc(OC)c(OC)c(OC)c1NC(=O)c1ccccc1NC(=O)c1cccnc1 [Compound 4, methyl 3,4,5-trimethoxy-2-(2-(nicotinamido)benzamido)benzoate] | – | > 100 µM | 52.4 µM (≈ 24.4 µg/mL) | > 100 µM | > 100 µM | – |
| CC(=O)N1CCN(c2ccc(OCC3COC(Cn4ccnc4)(c4ccc(Cl)cc4Cl)O3)cc2)CC1 (stereo not shown) [Ketoconazole, reference compound] | – | – | – | 5 µM (≈ 2.66 µg/mL) | – | – |
| C/C=C/C1=CC(=O)[C@@H](O)[C@@H]1O [Compound 15, (+)-terrein] | >100 µM | – | – | – | – | MIC Enterobacter aerogenes (Enterobacter aerogenes): >100 µM; MIC Staphylococcus aureus (Staphylococcus aureus): >100 µM; MIC Candida albicans (Candida albicans; agar dilution, YPD agar, paper disks, 24 h incubation, 37 °C): >100 µM |

Reference: publication PMC3164379, “Three New Compounds from Aspergillus terreus PT06-2 Grown in a High Salt Medium” (Marine Drugs, 2011)
